What follows are compounds tested against REV-ERBα LBD (Homo sapiens, UniProt P20393, DEL324-422) (assay: biochemical). Conditions: FRET assay; 6xHistag-REV-ERBα LBD with FITC-labeled SMRT corepressor peptide; read-out: REVERBα (Agonism of REV-ERBα, EC50).
Chain of REV-ERBα LBD (P20393 with tags, fused parts or gaps DEL324-422): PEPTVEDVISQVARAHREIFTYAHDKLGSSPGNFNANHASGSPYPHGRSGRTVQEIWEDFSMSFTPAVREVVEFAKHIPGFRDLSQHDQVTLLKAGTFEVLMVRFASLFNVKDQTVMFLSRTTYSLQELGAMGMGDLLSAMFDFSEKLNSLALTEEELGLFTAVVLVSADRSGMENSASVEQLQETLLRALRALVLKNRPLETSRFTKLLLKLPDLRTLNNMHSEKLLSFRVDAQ
Chain of REV-ERBα LBD (Q9Y618 2335-2356 partner limits assumed): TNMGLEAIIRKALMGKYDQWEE
In short: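 TR-FRET corepressor recruitment: 4 nM His-tagged human REV-ERBα LBD (residues 281-614 Δ324-422, or 381-579), 1 nM Tb-anti-His antibody and 400 nM FITC-SMRT peptide in pH 7.4 phosphate buffer with DTT; ligands in triplicate, 2 h at 4° C. 520/495 nm ratio fitted to sigmoidal dose-response for EC50.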
With O=S(=O)(N[C@@H](c1cn(C2CCC2)c2nc(-c3ccc(F)cc3C(F)(F)F)c(F)cc12)C(F)F)C1CC1 [Compound 155, (S)—N-(1-(1-cyclobutyl-5-fluoro-6-(4-fluoro-2-(trifluoromethyl)phenyl)-1H-pyrrolo[2,3-b]pyridin-3-yl)-2,2-difluoroethyl)cyclopropanesulfonamide] the EC50 was < 100 nM. CC(NS(=O)(=O)C1CC1)c1cn(CC(C)(C)C)c2cc(-c3ncc(F)cc3C#N)c(F)cc12 (centres unmarked) [Compound 63, N-(1-(6-(3-cyano-5-fluoropyridin-2-yl)-5-fluoro-1-neopentyl-1H-indol-3-yl)ethyl)cyclopropanesulfonamide] was tested, and the EC50 was < 100 nM. In the case of CC(C)(C)Cn1cc([C@H](NS(=O)(=O)C2CC2)C(F)F)c2cc(F)c(-c3ncc(C#N)cc3C(F)(F)F)cc21 [Compound 138, (S)—N-(1-(6-(5-cyano-3-(trifluoromethyl)pyridin-2-yl)-5-fluoro-1-neopentyl-1H-indol-3-yl)-2,2-difluoroethyl)cyclopropanesulfonamide], the EC50 is reported as < 100 nM. Compound O=S(=O)(N[C@@H](c1cn(C2COC2)c2cc(-c3ccc(F)cc3C(F)(F)F)c(F)cc12)C(F)F)C1CC1 [Compound 176, (S)—N-(2,2-difluoro-1-(5-fluoro-6-(4-fluoro-2-(trifluoromethyl)phenyl)-1-(oxetan-3-yl)-1H-indol-3-yl)ethyl)cyclopropanesulfonamide] has an EC50 of 100 to 1000 nM. With CC(NS(=O)(=O)C1CC1)c1cn(CC(C)(C)C)c2cc(-c3cnccc3F)c(F)cc12 (centres unmarked) [Compound 72, N-(1-(5-fluoro-6-(4-fluoropyridin-3-yl)-1-neopentyl-1H-indol-3-yl)ethyl)cyclopropanesulfonamide] the EC50 was 100 to 1000 nM. In the case of CC(C)(C)Cn1cc(C(NS(=O)(=O)C23CC(C2)C3)C(F)F)c2cc(F)c(-c3ccccc3C(F)(F)F)cc21 (centres unmarked) [Compound 41, N-(2,2-difluoro-1-(5-fluoro-1-neopentyl-6-(2-(trifluoromethyl)phenyl)-1H-indol-3-yl)ethyl)bicyclo[1.1.1]pentane-1-sulfonamide], the EC50 is reported as < 100 nM. In the case of O=S(=O)(N[C@@H](c1cn(C2CCC2)c2cc(-c3ncc(F)cc3C(F)(F)F)c(F)cc12)C(F)F)C1CC1 [Compound 156, (S)—N-(1-(1-cyclobutyl-5-fluoro-6-(5-fluoro-3-(trifluoromethyl)pyridin-2-yl)-1H-indol-3-yl)-2,2-difluoroethyl)cyclopropanesulfonamide], the EC50 is reported as < 100 nM. For CC(C)(C)Cn1cc([C@H](NS(=O)(=O)C2CC(F)C2)C(F)F)c2ccc(-c3ccccc3C(F)(F)F)cc21 (stereo partly drawn) [Compound 22, (S)—N-(2,2-difluoro-1-(1-neopentyl-6-(2-(trifluoromethyl)phenyl)-1H-indol-3-yl)ethyl)-3-fluorocyclobutane-1-sulfonamide], the EC50 was < 100 nM. For CC(C)(C)Cn1cc([C@H](NS(=O)(=O)C2CC2)C(F)F)c2ccc(-c3ncccc3C(F)F)cc21 [Compound 100, (S)—N-(1-(6-(3-(difluoromethyl)pyridin-2-yl)-1-neopentyl-1H-indol-3-yl)-2,2-difluoroethyl)cyclopropanesulfonamide], the EC50 was < 100 nM. With CC(C)(C)Cn1cc([C@H](NS(=O)(=O)C2CC2)C(F)F)c2ccc(-c3ccc(F)cc3C(F)F)cc21 [Compound 105, (S)—N-(1-(6-(2-(difluoromethyl)-4-fluorophenyl)-1-neopentyl-1H-indol-3-yl)-2,2-difluoroethyl)cyclopropanesulfonamide] the EC50 was < 100 nM. In the case of CN(C)S(=O)(=O)N[C@@H](c1cn(CC(C)(C)C)c2cc(-c3cccnc3C(F)(F)F)c(F)cc12)C(F)F [Compound 43], the EC50 is reported as < 100 nM. For CC(C)(C)Cn1cc([C@H](NS(=O)(=O)C2CC2)C(F)F)c2ccc(-c3ncccc3F)cc21 [Compound 83, (S)—N-(2,2-difluoro-1-(6-(3-fluoropyridin-2-yl)-1-neopentyl-1H-indol-3-yl)ethyl)cyclopropanesulfonamide], the EC50 was < 100 nM. In the case of Cn1ncc(C(F)F)c1-c1cc2c(cc1F)c([C@H](NS(=O)(=O)C1CC1)C(F)F)cn2CC(C)(C)C [Compound 125, (S)—N-(1-(6-(4-(difluoromethyl)-1-methyl-1H-pyrazol-5-yl)-5-fluoro-1-neopentyl-1H-indol-3-yl)-2,2-difluoroethyl)cyclopropanesulfonamide], the EC50 is reported as < 100 nM. In the case of CC(C)(C)Cn1cc([C@H](NS(=O)(=O)C2CC2)C(F)F)c2ccc(-c3cc(F)cnc3C#N)cc21 [Compound 86, (S)—N-(1-(6-(2-cyano-5-fluoropyridin-3-yl)-1-neopentyl-1H-indol-3-yl)-2,2-difluoroethyl)cyclopropanesulfonamide], the EC50 is reported as < 100 nM. CC(C)(C)Cn1cc([C@H](NS(=O)(=O)C2CC2)C(F)F)c2cc(F)c(-c3ncccc3C(F)F)cc21 [Compound 111, (S)—N-(1-(6-(3-(difluoromethyl)pyridin-2-yl)-5-fluoro-1-neopentyl-1H-indol-3-yl)-2,2-difluoroethyl)cyclopropanesulfonamide] was tested, and the EC50 was < 100 nM. In the case of CC(C)(C)Cn1cc([C@H](NS(=O)(=O)C2CC2)C(F)(F)F)c2cc(F)c(-c3ncccc3C#N)cc21 [Compound 10, (S)—N-(1-(6-(3-cyanopyridin-2-yl)-5-fluoro-1-neopentyl-1H-indol-3-yl)-2,2,2-trifluoroethyl)cyclopropanesulfonamide], the EC50 is reported as 100 to 1000 nM. For CC(C)(C)Cn1cc([C@H](NS(=O)(=O)C2CC2)C(F)F)c2cc(F)c(-c3cc(F)cnc3C#N)cc21 [Compound 96, (S)—N-(1-(6-(2-cyano-5-fluoropyridin-3-yl)-5-fluoro-1-neopentyl-1H-indol-3-yl)-2,2-difluoroethyl)cyclopropanesulfonamide], the EC50 was < 100 nM. In the case of CC(C)(C)Cn1cc([C@H](NS(=O)(=O)C2CC2)C(F)F)c2ccc(-c3ccncc3C(F)(F)F)cc21 [Compound 102, (S)—N-(2,2-difluoro-1-(1-neopentyl-6-(3-(trifluoromethyl)pyridin-4-yl)-1H-indol-3-yl)ethyl)cyclopropanesulfonamide], the EC50 is reported as < 100 nM. With CC(NS(=O)(=O)C1CC1)c1cn(CC(C)(C)C)c2cc(-c3cncc(C#N)c3)c(F)cc12 (centres unmarked) [Compound 37, N-[1-[6-(5-cyano-3-pyridyl)-1-(2,2-dimethylpropyl)-5-fluoro-indol-3-yl]ethyl]cyclopropanesulfonamide] the EC50 was 100 to 1000 nM. In the case of CC(C)(C)Cn1cc([C@H](NS(=O)(=O)C2CC2)C(F)F)c2cc(F)c(-c3ncccc3C3CC3)cc21 [Compound 115, (S)—N-(1-(6-(3-cyclopropylpyridin-2-yl)-5-fluoro-1-neopentyl-1H-indol-3-yl)-2,2-difluoroethyl)cyclopropanesulfonamide], the EC50 is reported as < 100 nM. With CC(C)(C)Cn1cc([C@H](NS(=O)(=O)C2CC2)C(F)F)c2cc(F)c(-c3ccc(F)cc3C(F)(F)F)nc21 [Compound 153, (S)—N-(2,2-difluoro-1-(5-fluoro-6-(4-fluoro-2-(trifluoromethyl)phenyl)-1-neopentyl-1H-pyrrolo[2,3-b]pyridin-3-yl)ethyl)cyclopropanesulfonamide] the EC50 was < 100 nM. In the case of Cc1nccc(C(F)(F)F)c1-c1cc2c(cc1F)c([C@H](NS(=O)(=O)C1CC1)C(F)F)cn2CC(C)(C)C [Compound 130, N-((1S)-2,2-difluoro-1-(5-fluoro-6-(2-methyl-4-(trifluoromethyl)pyridin-3-yl)-1-neopentyl-1H-indol-3-yl)ethyl)cyclopropanesulfonamide], the EC50 is reported as < 100 nM. In the case of CC(C)(C)Cn1cc([C@H](NS(=O)(=O)C2CC2)C(F)F)c2cc(F)c(-c3ncc(F)cc3C(F)(F)F)cc21 [Compound 56, (S)—N-(2,2-difluoro-1-(5-fluoro-6-(5-fluoro-3-(trifluoromethyl)pyridin-2-yl)-1-neopentyl-1H-indol-3-yl)ethyl)cyclopropanesulfonamide], the EC50 is reported as < 100 nM. With Cc1ncnc(C(F)F)c1-c1ccc2c([C@H](NS(=O)(=O)C3CC3)C(F)F)cn(CC(C)(C)C)c2c1 [Compound 120, (S)—N-(1-(6-(4-(difluoromethyl)-6-methylpyrimidin-5-yl)-1-neopentyl-1H-indol-3-yl)-2,2-difluoroethyl)cyclopropanesulfonamide] the EC50 was < 100 nM. CC(NS(=O)(=O)C1CC1)c1cn(CC(C)(C)C)c2cc(-c3ncccc3F)c(F)cc12 (centres unmarked) [Compound 59, N-[1-[1-(2,2-dimethylpropyl)-5-fluoro-6-(3-fluoro-2-pyridyl)indol-3-yl]ethyl]cyclopropanesulfonamide] was tested, and the EC50 was < 100 nM. N#Cc1nccc(C(F)F)c1-c1nc2c(cc1F)c([C@H](NS(=O)(=O)C1CC1)C(F)F)cn2C1CCC1 [Compound 162, N-((1S)-1-(6-(2-cyano-4-(difluoromethyl)pyridin-3-yl)-1-cyclobutyl-5-fluoro-1H-pyrrolo[2,3-b]pyridin-3-yl)-2,2-difluoroethyl)cyclopropanesulfonamide] was tested, and the EC50 was < 100 nM. In the case of CC(C)(C)Cn1cc([C@H](NS(=O)(=O)C2CC2)C(F)F)c2cc(F)c(-c3c(C#N)cccc3C(F)(F)F)cc21 [Compound 108, N-((1S)-1-(6-(2-cyano-6-(trifluoromethyl)phenyl)-5-fluoro-1-neopentyl-1H-indol-3-yl)-2,2-difluoroethyl)cyclopropanesulfonamide], the EC50 is reported as < 100 nM. In the case of CC(C)(C)Cn1cc([C@H](NS(=O)(=O)C2CC2)C(F)F)c2ccc(-c3cccnc3C(F)(F)F)cc21 [Compound 13, (S)—N-(2,2-difluoro-1-(1-neopentyl-6-(2-(trifluoromethyl)pyridin-3-yl)-1H-indol-3-yl)ethyl)cyclopropanesulfonamide], the EC50 is reported as < 100 nM. CC(C)(C)Cn1cc([C@H](NS(=O)(=O)C2CC2)C(F)F)c2ccc(-c3ncc(F)cc3F)cc21 [Compound 84, (S)—N-(1-(6-(3,5-difluoropyridin-2-yl)-1-neopentyl-1H-indol-3-yl)-2,2-difluoroethyl)cyclopropanesulfonamide] was tested, and the EC50 was < 100 nM.

Source: patent publication US20260285846A1, “REV-ERB AGONISTS FOR TH17-MEDIATED INFLAMMATORY DISORDERS” (UNIVERSITY OF FLORID RESEARCH FOUNDATION, iNCORPORATED, priority 2021, published 2026)
